Reference: patent US20170239237A1, “PYRROLOQUINOLINE DERIVATIVES AS 5-HT6 ANTAGONISTS, PREPARATION METHOD AND USE THEREOF” (Uniwersytet Jagiellonski, priority 2013, published 2017)
Read-outs that look alike come from different tables or passages of the source.

Tests used:
[1] = system: Wistar rats; test: Forced swim test (FST) in Wistar rats; type: in vivo, rat; conditions: for Minimum effective dose, forced swim test in rats (potential antidepressant properties): IP, 60 minutes before the test, Wistar rats
Protocol: (§1) For intraperitoneal (i.p.) administration: to the desired quantity of the solid compound in a glass beaker, required volume of sterile water for injection was added and swirled with glass bar until complete dissolution of the compound.
(§2) Animals. Male Wistar rats weighing 220-250 g were used in the test. […] All animals were kept in an environmentally controlled rooms (ambient temperature 22±2° C; relative humidity 50-60%; 12:12 light:dark cycle, lights on at 8:00). They were allowed to acclimatize with the environment for one week before commencement of the experiments. Standard laboratory food (Ssniff M-Z) and filtered water were freely available. The experiments were conducted in the light phase between 09.00 and 14.00 hours. 1 h before the start of the experiment, rats were transferred to the experimental room for acclimation.
Apparatus and procedure. […] On the first day of experiment, the animals were gently individually placed in Plexiglas cylinders (40 cm high, 18 cm in diameter) containing 15 cm of water maintained at 25° C. for 15 min. Upon removal from water, the rats were placed in a Plexiglas box for 30 min under a 60-W bulb to dry off. On the following day, the rats were placed again in the cylinder and the total duration of immobility was recorded throughout the 5-min test period. Fresh water was used for each animal.
(§3) Experimental design. The compounds were administered IP, 60 minutes before the test.
(§4) Drugs. The experimental compounds were dissolved in the distilled water. All compounds were administrated in the volume of 2 ml/kg.

[2] = system: Wistar rats; test: Conflict drinking test (Vogel test) in Wistar rats; type: in vivo, rat; conditions: for Minimum effective dose, conflict drinking (Vogel test) in rats (potential anxiolytic properties): IP, 60 minutes before the test, Wistar rats
Protocol: as §1, §2
Apparatus and procedure. […] Experimental chambers were connected to PC software by control chassis and electric shocks' generator. On the first day of the experiment, the rats were adapted to the test chambers for 10 min. […] Afterwards, they were allowed a 30-min free-drinking session in their home cages. […] Recording data started immediately after the first lick and every 20 licks rats were punished with an electric shock (0.5 mA, lasting 1 s). The impulses were released via the spout of the drinking bottles. If a rat was drinking when an impulse was released, it received a shock. The number of licks and the number of shocks received during a 5-min experimental session was recorded automatically.
as §3, §4

[3] = target: T1, 5-HT1A receptor (Homo sapiens, UniProt P08908); test: Radioligand binding, 5-HT1A ([3H]-8-OH-DPAT displacement)
T1 sequence (P08908 1-422): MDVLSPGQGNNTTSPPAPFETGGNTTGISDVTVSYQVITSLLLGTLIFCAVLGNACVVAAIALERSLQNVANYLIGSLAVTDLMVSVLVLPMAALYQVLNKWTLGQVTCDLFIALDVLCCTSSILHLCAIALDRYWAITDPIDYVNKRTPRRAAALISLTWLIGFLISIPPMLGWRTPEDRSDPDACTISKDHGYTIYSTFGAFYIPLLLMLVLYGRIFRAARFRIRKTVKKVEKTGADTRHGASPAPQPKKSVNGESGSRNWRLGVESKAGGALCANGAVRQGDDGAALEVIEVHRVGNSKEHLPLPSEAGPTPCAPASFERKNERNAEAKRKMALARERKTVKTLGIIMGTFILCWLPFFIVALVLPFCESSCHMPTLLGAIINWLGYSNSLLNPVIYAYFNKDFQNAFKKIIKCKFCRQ

[4] = target: T2, M1 receptors (Homo sapiens, UniProt P11229); test: biochemical; conditions: read-out: % inhibition of control binding at 10^−6M, M1
T2 sequence (P11229 1-460): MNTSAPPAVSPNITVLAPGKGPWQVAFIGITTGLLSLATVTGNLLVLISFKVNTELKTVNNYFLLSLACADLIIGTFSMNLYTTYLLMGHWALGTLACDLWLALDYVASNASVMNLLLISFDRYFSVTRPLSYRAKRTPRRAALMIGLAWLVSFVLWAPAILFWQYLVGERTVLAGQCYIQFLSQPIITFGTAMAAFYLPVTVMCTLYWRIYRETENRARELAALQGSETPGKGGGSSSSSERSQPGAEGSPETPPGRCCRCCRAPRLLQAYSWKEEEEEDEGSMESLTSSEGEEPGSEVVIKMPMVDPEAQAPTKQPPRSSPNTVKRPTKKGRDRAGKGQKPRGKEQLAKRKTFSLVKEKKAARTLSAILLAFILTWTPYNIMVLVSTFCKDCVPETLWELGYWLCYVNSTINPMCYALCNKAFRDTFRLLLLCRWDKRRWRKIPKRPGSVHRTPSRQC

[5] = target: D3 receptors (Homo sapiens, UniProt P35462); test: biochemical; conditions: read-out: % inhibition of control binding at 10^−6M, D3
[6] = target: 5-HT7 receptor (Homo sapiens, UniProt P34969); test: Radioligand binding, 5-HT7 ([3H]-5-CT displacement)
[7] = target: T3, 5-HT2C receptors (Homo sapiens, UniProt P28335); test: biochemical; conditions: read-out: % inhibition of control binding at 10^−6M, 5-HT2C
T3 sequence (P28335 33-458): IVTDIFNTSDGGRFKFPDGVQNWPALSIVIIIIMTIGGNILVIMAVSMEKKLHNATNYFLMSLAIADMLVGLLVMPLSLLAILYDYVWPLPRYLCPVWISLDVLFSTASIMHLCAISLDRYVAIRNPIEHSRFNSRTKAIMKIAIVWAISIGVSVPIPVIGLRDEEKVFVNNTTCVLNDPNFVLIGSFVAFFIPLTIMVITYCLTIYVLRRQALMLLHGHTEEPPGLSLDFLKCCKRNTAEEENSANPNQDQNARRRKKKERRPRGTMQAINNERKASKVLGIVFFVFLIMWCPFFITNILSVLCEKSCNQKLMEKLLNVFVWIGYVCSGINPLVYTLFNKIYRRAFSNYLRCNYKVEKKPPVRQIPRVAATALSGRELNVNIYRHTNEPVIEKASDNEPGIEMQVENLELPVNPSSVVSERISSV

[8] = target: dopamine D2L receptor (Homo sapiens, UniProt P14416); test: Radioligand binding, D2 ([3H]-raclopride displacement)
[9] = target: H1 receptors (Homo sapiens, UniProt P35367); test: biochemical; conditions: read-out: % inhibition of control binding at 10^−6M, H1
[10] = system: Sprague-Dawley rats; test: Novel object recognition (NOR) test in Sprague-Dawley rats, PCP-induced deficit; type: in vivo, rat

Chain of dopamine D2L receptor (P14416 whole entry): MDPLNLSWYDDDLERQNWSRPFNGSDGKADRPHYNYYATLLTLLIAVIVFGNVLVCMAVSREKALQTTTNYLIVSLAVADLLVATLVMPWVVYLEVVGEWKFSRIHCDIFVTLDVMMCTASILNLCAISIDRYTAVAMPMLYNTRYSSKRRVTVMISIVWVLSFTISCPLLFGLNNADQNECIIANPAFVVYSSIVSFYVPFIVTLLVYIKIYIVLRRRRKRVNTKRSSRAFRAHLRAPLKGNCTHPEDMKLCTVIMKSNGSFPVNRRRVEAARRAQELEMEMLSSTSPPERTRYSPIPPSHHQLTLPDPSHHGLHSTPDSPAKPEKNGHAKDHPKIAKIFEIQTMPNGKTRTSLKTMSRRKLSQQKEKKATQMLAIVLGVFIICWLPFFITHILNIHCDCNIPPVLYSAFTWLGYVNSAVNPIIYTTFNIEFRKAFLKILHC
Chain of 5-HT7 receptor (P34969 1-432 limits assumed): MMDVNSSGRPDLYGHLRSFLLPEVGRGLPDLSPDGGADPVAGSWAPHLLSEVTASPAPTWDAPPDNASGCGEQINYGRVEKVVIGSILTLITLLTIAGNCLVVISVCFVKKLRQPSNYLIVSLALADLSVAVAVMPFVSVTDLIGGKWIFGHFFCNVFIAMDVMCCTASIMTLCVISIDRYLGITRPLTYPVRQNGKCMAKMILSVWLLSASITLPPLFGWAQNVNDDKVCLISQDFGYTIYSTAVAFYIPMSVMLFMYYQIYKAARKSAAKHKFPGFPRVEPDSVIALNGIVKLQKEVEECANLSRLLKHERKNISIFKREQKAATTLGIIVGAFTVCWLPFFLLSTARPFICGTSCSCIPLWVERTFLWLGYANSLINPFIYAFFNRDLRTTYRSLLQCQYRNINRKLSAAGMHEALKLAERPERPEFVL
Chain of D3 receptors (P35462 whole entry): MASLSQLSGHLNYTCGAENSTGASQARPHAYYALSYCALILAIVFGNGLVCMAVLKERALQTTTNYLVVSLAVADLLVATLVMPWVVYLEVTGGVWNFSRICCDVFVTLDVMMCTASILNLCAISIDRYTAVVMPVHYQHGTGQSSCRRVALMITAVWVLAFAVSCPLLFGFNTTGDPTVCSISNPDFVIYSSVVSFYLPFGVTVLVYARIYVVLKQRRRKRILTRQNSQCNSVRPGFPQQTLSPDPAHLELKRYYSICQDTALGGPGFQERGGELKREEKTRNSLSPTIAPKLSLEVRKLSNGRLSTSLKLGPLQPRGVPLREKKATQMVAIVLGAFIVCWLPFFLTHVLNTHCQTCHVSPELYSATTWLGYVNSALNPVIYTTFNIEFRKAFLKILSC
Chain of H1 receptors (P35367 whole entry): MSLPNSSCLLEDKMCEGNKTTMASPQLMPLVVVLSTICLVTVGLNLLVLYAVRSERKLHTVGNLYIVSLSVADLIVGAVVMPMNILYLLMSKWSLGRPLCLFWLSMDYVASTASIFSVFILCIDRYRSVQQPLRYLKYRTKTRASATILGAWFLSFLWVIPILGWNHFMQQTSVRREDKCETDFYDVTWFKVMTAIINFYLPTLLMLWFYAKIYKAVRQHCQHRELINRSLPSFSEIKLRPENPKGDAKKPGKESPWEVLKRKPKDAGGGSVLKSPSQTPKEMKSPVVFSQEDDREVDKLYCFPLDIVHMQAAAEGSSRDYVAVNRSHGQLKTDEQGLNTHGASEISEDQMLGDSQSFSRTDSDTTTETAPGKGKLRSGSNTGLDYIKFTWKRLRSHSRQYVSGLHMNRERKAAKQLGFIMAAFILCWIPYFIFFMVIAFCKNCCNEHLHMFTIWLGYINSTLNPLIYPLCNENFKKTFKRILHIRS

Ki [3] | Ki [6] | Ki [8] | inhibition at 1 µM [9] | SMILES | Minimum effective dose, forced swim test in rats (potential antidepressant properties) [1] | Minimum effective dose, conflict drinking (Vogel test) in rats (potential anxiolytic properties) [2] | inhibition at 1 µM [4] | inhibition at 1 µM [5] | inhibition at 1 µM [7] | Ki ([3]; read-out: Ki 5-HT1A, cloned human receptor in HEK293, three independent experiments, SEM ± 22%) | melting point | Ki ([6]; read-out: Ki 5-HT7) | Ki ([8]; read-out: Ki D2, cloned human receptor in HEK293, three independent experiments, SEM ± 22%) | effective dose in the forced swim test (reference compounds) ([1]; rats, antidepressant-like activity, imipramine increased climbing time) | active dose in the conflict drinking test (Vogel test), increasing number of licks and shocks received ([2]; rats) | dose effective against PCP-induced cognitive deficit in NOR test [10]
2680 nM | 3940 nM | 754 nM | 17% | O=S(=O)(c1cccc(Cl)c1)n1ccc2c(N[C@@H]3CCNC3)nc3ccccc3c21 [Compound 7, (R)-1-((3-chlorophenyl)sulfonyl)-N-(pyrrolidin-3-yl)-1H-pyrrolo[3,2-c]quinolin-4-amine] | 3 mg/kg | 10 mg/kg | -1% | 82% | 2% | – | – | – | – | – | – | –
– | – | – | – | O=S(=O)(c1cccc(Cl)c1)n1ccc2c(N3CCNCC3)nc3ccccc3c21 [Compound 29, 1-((3-chlorophenyl)sulfonyl)-4-(piperazin-1-yl)-1H-pyrrolo[3,2-c]quinoline] | >10 mg/kg | 10 mg/kg | -11% | 66% | 13% | 773 nM | 161 to 163 °C | 1790 nM | 1340 nM | – | – | –
– | – | – | – | COc1ccc(NS(=O)(=O)c2sc3ccc(Cl)cc3c2C)cc1N1CCNCC1 [SB-271046, reference compound] | – | – | – | – | – | – | – | – | – | 10 mg/kg | ≤ 10 mg/kg | 1 mg/kg
